In brackets after ≈: the same amount, converted by molar mass. Read-outs that look alike come from different tables or passages of the source.
Columns and labels:
human ribonuclease H1 = molecular target: T1, human ribonuclease H1 (Homo sapiens, UniProt O60930); experiment: biochemical; format: biochemical
T1 construct: made in house; host or cells: E. coli
T1 sequence (O60930 1-286): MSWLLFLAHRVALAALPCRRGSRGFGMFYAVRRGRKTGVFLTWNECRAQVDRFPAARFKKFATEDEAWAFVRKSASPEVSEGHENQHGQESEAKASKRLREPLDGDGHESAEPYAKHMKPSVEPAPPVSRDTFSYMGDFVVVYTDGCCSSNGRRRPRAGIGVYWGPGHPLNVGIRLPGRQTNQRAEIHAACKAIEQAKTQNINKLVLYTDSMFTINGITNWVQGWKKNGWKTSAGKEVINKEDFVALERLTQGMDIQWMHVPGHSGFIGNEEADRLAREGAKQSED

Vero cells [1] = tested on: Vero cells
RVFV [2] = experiment: microbe, parasite or virus in culture; format: cell-based, Rift Valley Fever Virus
RVFV [3] = experiment: microbe, parasite or virus in culture; format: cell-based, Rift Valley Fever Virus; remark: listed apart in the source
Staphylococcus spp. = experiment: Inhibition of Staphylococcus spp. growth, broth microdilution; format: cell-based, S. saprophyticus or S. aureus; conditions: 16-24 hours, Mueller-Hinton broth, — = no measurable MIC80; for MIC80: Staphylococcus
HepDES19 = experiment: Cytotoxicity in HepDES19 cells, MTS assay; conditions: read-out: CC50 HepDES19; HepDES19 cells, 3 days, MTS; * marks limit value
C. neoformans = experiment: Inhibition of C. neoformans growth, limiting dilution assay; format: cell-based, Cryptococcus neoformans; conditions: 48 hours at 35° C., YNB-02; for MIC80: Cryptococcus neoformans, read-out: C. neoformans (MIC80)
RVFV strain MP12 = experiment: microbe, parasite or virus in culture; format: cell-based, Rift Valley Fever Virus; conditions: for EC50: read-out: Estimated EC50
Escherichia coli = experiment: Inhibition of Escherichia coli growth, broth microdilution; format: cell-based; conditions: 16-24 hours, Mueller-Hinton broth, — = inactive; for MIC80: Escherichia coli, read-out: E. coli (MIC80)
Vero cells [4] = experiment: Quantitative cytotoxicity in Vero cells, crystal violet staining of EC50 plates; conditions: read-out: CC50 Vero, 1 day of compound exposure, crystal violet, * marks limit values
[5] = Cytotoxicity in HepDES19 cells, MTS assay; conditions: human, HepDES19 cells (HepG2-derived hepatoblastoma cell line)
[6] = Quantitative cytotoxicity in Vero cells, crystal violet staining of EC50 plates; conditions: African green monkey
in vitro [7] = conditions: African green monkey
in vitro [8] = conditions: human
[9] = Rift Valley fever virus, Vero, 24 h, read-out: RVFV (EC50, μM)
[10] = Rift Valley fever virus, A549, 24 h

In the case of `O=C(Cc1ccccc1)Sc1cccccc1=O` [Compound 680], the IC50 (human ribonuclease H1; read-out: Human RNaseH1 (IC50)) is reported as 652 µM, the CC50 (A549 cells) is reported as ≥ 120 µM and the CC50 (Vero cells [1]) is reported as 0.9 µM. For the same compound, the EC50 (RVFV [2]; read-out: RVFV (EC50)) was > 120 µM, the EC50 (RVFV [3]; read-out: EC50) was 11.6 µM and the “Staphylococcus spp. (MIC80, μM)” value (Staphylococcus spp.) was 13 µM. The CC50 (HepDES19) was 95.6 µM, the “C. neoformans (MIC80, μM)” value (C. neoformans) was 0.40 µM and the EC50 (RVFV strain MP12) was 0.3 µM. The “E. coli (MIC80, μM)” value (Escherichia coli) was 30 µM and the CC50 (Vero cells [4]) was > 120 µM.
With `Cc1cc(O)c(=O)c(O)cc1C(=O)NCc1ccccc1` [Compound 388] the IC50 (human ribonuclease H1) was 166 µM, the EC50 (RVFV [2]; [9]) was 9 µM and the MIC80 (Staphylococcus spp.) was 67 µM (≈ 19.1 µg/mL). For the same compound, the CC50 at 3 days [5] was 19.8 µM, the MIC80 (C. neoformans) was 11 µM (≈ 3.14 µg/mL) and the “activity against RVFV in the primary screen, in words” value (RVFV strain MP12) was “active”. For the same compound, the EC50 (RVFV strain MP12; Rift Valley fever virus, Vero) was 19 µM, the MIC80 (Escherichia coli) was 67 µM (≈ 19.1 µg/mL) and the CC50 at 1 day [6] was 239 µM.
Work on `Cc1cc(O)c(=O)c(O)cc1C(=O)N1CCN(C(c2ccc(F)cc2)c2ccc(F)cc2)CC1` [Compound 1017] yielded an EC50 (RVFV [2]; [9]) of 8 µM, a CC50 (HepDES19) of 3.9 µM and an MIC80 (C. neoformans) of 6 µM (≈ 2.8 µg/mL). The EC50 (RVFV strain MP12; Rift Valley fever virus, Vero) was 3 µM, the CC50 (in vitro [7]) was ≥ 120 µM and the CC50 at 1 day [6] was 54.7 µM.
In the case of `Cc1cc(O)c(=O)c(O)cc1C(=O)c1ccc(-c2ccncc2)cc1` [Compound 260], the “Human RNaseH1 (IC50, μM)” value (human ribonuclease H1) is reported as “poorly active or inactive”, the IC50 (human ribonuclease H1) is reported as 277 µM and the EC50 (RVFV [2]; [9]) is reported as 31.6 µM. For the same compound, the “Staphylococcus spp. (MIC80, μM)” value (Staphylococcus spp.) was “poorly active or inactive”, the CC50 at 3 days [5] was 45 µM and the MIC80 (C. neoformans) was 50 µM (≈ 16.7 µg/mL). For the same compound, the “E. coli (MIC80, μM)” value (Escherichia coli) was “poorly active or inactive” and the CC50 at 1 day [6] was > 250 µM.
For `Cc1ccc(/C=C/C(=O)c2ccccc(=O)c2O)cc1` [Compound 340], the IC50 (human ribonuclease H1; read-out: Human RNaseH1 (IC50)) was > 500 µM, the EC50 (RVFV [2]; read-out: RVFV (EC50)) was 27.3 µM and the CC50 (HepDES19) was 18.7 µM. The “C. neoformans (MIC80, μM)” value (C. neoformans) was 49 µM, the EC50 (RVFV strain MP12) was 3 µM and the CC50 (Vero cells [4]) was 70 µM.
In the case of `Cc1cc(O)c(=O)c(O)cc1C(=O)c1ccccc1O` [Compound 311], the IC50 (human ribonuclease H1) is reported as 26 µM, the EC50 (RVFV [2]; [9]) is reported as 11.6 µM and the MIC80 (Staphylococcus spp.) is reported as 67 µM (≈ 18.2 µg/mL). For the same compound, the MIC80 (C. neoformans) was 15 µM (≈ 4.08 µg/mL), the EC50 (RVFV strain MP12; Rift Valley fever virus, Vero) was 3 µM and the CC50 (in vitro [7]) was 115 µM. The MIC80 (Escherichia coli) was 30 µM (≈ 8.17 µg/mL) and the CC50 at 1 day [6] was > 250 µM.
In the case of `CCCCSc1ccc(SCCCC)c(O)c(=O)c1O` [Compound 694], the IC50 (human ribonuclease H1) is reported as > 500 µM, the EC50 (RVFV [2]; [9]) is reported as 3.7 µM and the MIC80 (Staphylococcus spp.) is reported as 9 µM (≈ 2.83 µg/mL). It also gave a CC50 (HepDES19) of 1.8 µM, an MIC80 (C. neoformans) of 2.3 µM (≈ 0.723 µg/mL) and an EC50 (RVFV strain MP12; Rift Valley fever virus, Vero) of 6 µM. For the same compound, the CC50 (in vitro [7]) was ≥ 120 µM and the CC50 at 1 day [6] was 22.1 µM.
For `C/C(=N\c1ccc(Cl)c(Cl)c1)c1c(C)cc(O)n(O)c1=O` [Compound 670], the IC50 (human ribonuclease H1; read-out: Human RNaseH1 (IC50)) was 356 µM, the CC50 (in vitro [8]) was ≥ 120 µM and the EC50 (RVFV [2]; [9]) was 14 to 20 µM. It also gave an EC50 (RVFV [2]; read-out: RVFV (EC50)) of 14 µM, an EC50 (RVFV [3]; [10]) of 15.3 µM and a CC50 (HepDES19) of 69 µM. For the same compound, the MIC80 (C. neoformans) was 69 µM (≈ 22.6 µg/mL), the EC50 (RVFV strain MP12; Rift Valley fever virus, Vero) was 10 µM and the CC50 (in vitro [7]) was ≥ 120 µM. The CC50 at 1 day [6] was > 120 µM.
Compound `Cc1cc(O)c(=O)c(O)c(O)c1C(=O)c1ccc(-c2ccccc2)cc1` [Compound 362] has an IC50 (human ribonuclease H1; read-out: Human RNaseH1 (IC50)) of 212 µM, an EC50 (RVFV [2]; [9]) of 2.6 µM and a CC50 (HepDES19) of 5.4 µM. The MIC80 (C. neoformans) was 24 µM (≈ 8.36 µg/mL), the EC50 (RVFV strain MP12; Rift Valley fever virus, Vero) was 6 µM and the “E. coli (MIC80, μM)” value (Escherichia coli) was “inactive”. The CC50 at 1 day [6] was 77.8 µM.
In the case of `Cc1cc(O)c(=O)c(O)cc1C(=O)Nc1ccccc1` [Compound 389], the “Human RNaseH1 (IC50, μM)” value (human ribonuclease H1) is reported as “nearly inactive”, the IC50 (human ribonuclease H1) is reported as 309 µM and the EC50 (RVFV [2]; [9]) is reported as 8.8 µM. The “Staphylococcus spp. (MIC80, μM)” value (Staphylococcus spp.) was “good to moderate activity”, the MIC80 (Staphylococcus spp.) was 44 µM (≈ 11.9 µg/mL) and the CC50 at 3 days [5] was 26.5 µM. For the same compound, the MIC80 (C. neoformans) was 3.5 µM (≈ 0.949 µg/mL), the “activity against RVFV in the primary screen, in words” value (RVFV strain MP12) was “active” and the EC50 (RVFV strain MP12; Rift Valley fever virus, Vero) was 16 µM. The “E. coli (MIC80, μM)” value (Escherichia coli) was “good to moderate activity”, the MIC80 (Escherichia coli) was 44 µM (≈ 11.9 µg/mL) and the CC50 at 1 day [6] was > 250 µM.
For `Cc1cc(O)c(=O)c(O)cc1C(=O)NC(CCC(=O)OC(C)(C)C)C(=O)OC(C)(C)C` (stereo not drawn) [Compound 867], the IC50 (human ribonuclease H1) was > 500 µM, the CC50 (in vitro [8]) was ≥ 120 µM and the EC50 (RVFV [2]; [9]) was 8.7 µM. It also gave an EC50 (RVFV [3]; [10]) of 33 µM, a CC50 (HepDES19) of 5.2 µM and an MIC80 (C. neoformans) of 9 µM (≈ 3.94 µg/mL). The EC50 (RVFV strain MP12; Rift Valley fever virus, Vero) was 7 µM, the CC50 (in vitro [7]) was ≥ 120 µM and the CC50 at 1 day [6] was > 120 µM.
In the case of `CCc1cccc(N=C(C)c2c(C)cc(=O)n(O)c2O)c1` [Compound 518], the IC50 (human ribonuclease H1; read-out: Human RNaseH1 (IC50)) is reported as 436 µM, the CC50 (A549 cells) is reported as 16.5 µM and the CC50 (Vero cells [1]) is reported as ≥ 120 µM. The EC50 (RVFV [2]; read-out: RVFV (EC50)) was 20 µM, the EC50 (RVFV [3]; read-out: EC50) was 17.2 µM and the “Staphylococcus spp. (MIC80, μM)” value (Staphylococcus spp.) was 67 µM. The CC50 (HepDES19) was 91.4 µM, the “C. neoformans (MIC80, μM)” value (C. neoformans) was 24 µM and the EC50 (RVFV strain MP12) was 7 µM. For the same compound, the CC50 (Vero cells [4]) was > 120 µM.
Work on `Cc1cc(O)c(=O)c(O)cc1C(=O)c1cccc(Br)c1` [Compound 359] yielded an EC50 (RVFV [2]; [9]) of 5.1 µM, a CC50 (HepDES19) of 19.4 µM and an MIC80 (C. neoformans) of 24 µM (≈ 8.04 µg/mL). The EC50 (RVFV strain MP12; Rift Valley fever virus, Vero) was 4 µM and the CC50 at 1 day [6] was 170 µM.
With `CC[C@H](C)[C@H](NC(=O)OCC1c2ccccc2-c2ccccc21)C(=O)Sc1cccccc1=O` [Compound 686] the IC50 (human ribonuclease H1; read-out: Human RNaseH1 (IC50)) was > 500 µM, the CC50 (A549 cells) was 67.6 µM and the CC50 (Vero cells [1]) was ≥ 120 µM. The EC50 (RVFV [2]; read-out: RVFV (EC50)) was > 120 µM, the EC50 (RVFV [3]; read-out: EC50) was 7.87 µM and the “Staphylococcus spp. (MIC80, μM)” value (Staphylococcus spp.) was 30 µM. For the same compound, the CC50 (HepDES19) was 42.6 µM, the “C. neoformans (MIC80, μM)” value (C. neoformans) was 0.85 µM and the EC50 (RVFV strain MP12) was 2 µM. For the same compound, the CC50 (Vero cells [4]) was > 120 µM.
Compound `Cc1cc(O)c(=O)c(O)cc1C(=O)c1cccs1` [Compound 308] has an IC50 (human ribonuclease H1; read-out: Human RNaseH1 (IC50)) of 46 µM, a CC50 (in vitro [8]) of 119 µM and an EC50 (RVFV [2]; [9]) of 0.54 µM. The EC50 (RVFV [3]; [10]) was 8.36 µM, the EC50 (RVFV [3]; Rift Valley fever virus, A549, 24 h, read-out: EC50 in A549 cells) was 8.4 µM and the MIC80 (Staphylococcus spp.) was 44 µM (≈ 11.5 µg/mL). For the same compound, the MIC80 (C. neoformans) was 11 µM (≈ 2.89 µg/mL), the EC50 (RVFV strain MP12; Rift Valley fever virus, Vero) was 2 µM and the CC50 (in vitro [7]) was 111 µM. For the same compound, the MIC80 (Escherichia coli) was 25 µM (≈ 6.56 µg/mL) and the CC50 at 1 day [6] was 217 µM.
With `CC(C)Sc1ccc(SC(C)C)c(O)c(=O)c1O` [Compound 696] the EC50 (RVFV [2]; [9]) was 6 µM, the MIC80 (Staphylococcus spp.) was 13 µM (≈ 3.72 µg/mL) and the CC50 (HepDES19) was 14.1 µM. For the same compound, the MIC80 (C. neoformans) was 1.5 µM (≈ 0.43 µg/mL), the EC50 (RVFV strain MP12; Rift Valley fever virus, Vero) was 12 µM and the CC50 (in vitro [7]) was 118 µM. The MIC80 (Escherichia coli) was 20 µM (≈ 5.73 µg/mL) and the CC50 at 1 day [6] was 56.5 µM.
